Series [1] concerns the target T1, liver ALDH2 (Rattus norvegicus, UniProt P11884).
T1 construct: from tissue; host or cells: liver (left lateral lobe) lysate of Sprague Dawley (CD-IGS) rats
T1 sequence (P11884 20-519): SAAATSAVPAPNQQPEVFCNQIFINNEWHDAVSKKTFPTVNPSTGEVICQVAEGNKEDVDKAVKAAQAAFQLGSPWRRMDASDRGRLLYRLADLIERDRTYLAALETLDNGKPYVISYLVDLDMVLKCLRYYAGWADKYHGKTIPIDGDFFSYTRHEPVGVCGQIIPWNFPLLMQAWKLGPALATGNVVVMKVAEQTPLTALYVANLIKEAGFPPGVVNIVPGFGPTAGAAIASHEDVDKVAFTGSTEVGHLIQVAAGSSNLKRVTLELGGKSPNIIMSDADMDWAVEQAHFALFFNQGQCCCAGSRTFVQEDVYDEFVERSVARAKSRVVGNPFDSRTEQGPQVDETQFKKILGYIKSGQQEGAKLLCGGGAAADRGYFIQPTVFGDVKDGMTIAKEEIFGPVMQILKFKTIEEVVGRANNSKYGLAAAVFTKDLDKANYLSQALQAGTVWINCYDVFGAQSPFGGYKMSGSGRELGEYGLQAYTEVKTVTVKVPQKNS
The series can be described thus: In vivo ALDH2 enzymatic activity assay, ethanol challenge (Example 2). The arrangement: species or system rats (Sprague Dawley). The conditions noted are these: 20 mg/kg (Day 1), 12 mg/kg (Days 2-5) tail vein injection QD 5 days; ethanol challenge. As to the method: Sixty (60) male and sixty (60) female Sprague Dawley (CD-IGS) were obtained from Charles River Laboratories. All animals were housed under controlled conditions of temperature (72±8° F.), relative humidity (30-70%) and a 12-hour light-dark cycle (light from 6:00 AM to 6:00 PM). All animals were allowed free access to standard rodent chow (PicoLab Rodent Diet 20) and water (reverse osmosis, 0.2 μM filtered). Animals had at least a 3-day acclimation period prior to study.
Example 1-2 was synthesized by PharmAgra Labs, Lot #489PAL97; and stored at 4° C. and protected from light upon receipt. Example 1-2 dosing solutions were prepared by dissolving in PBS (pH 7.0) and thoroughly mixing via vortexing and sonication.
Example 1-15 was synthesized by PharmAgra Labs, Lot #505PAL17; and stored at 4° C. and protected from light upon receipt. Example 1-15 dosing solution was prepared by dissolving in PBS (pH 7.0) and thoroughly mixing via vortexing and sonication. The dosing formulation at concentration of 20 mg/mL was a clear solution.
Body weights of the animals in Groups 1-4 were obtained on Day 1. Body weights of the animals in Groups 5-8 were obtained on Days 1-3 respectively. Body weights of the animals in Groups 9-13 were obtained on Days 1, 4 and 5 respectively.
Animals were respectively administered vehicle and Example 1-2 at dosages of 2, 6.5 or 12 mg/kg via tail vein injection, once daily for 1 day (Groups 1-4), once daily for 3 days (Groups 5-8), or once daily for 5 days (Groups 9-12). For Group 13, animals were administered 20 mg/kg (on Day 1) or 12 mg/kg (on Days 2-5) dose via tail vein injection, once daily for 5 days. In some studies, the animals were administered a compound described herein for 10 days. In some studies, the animals were administered a compound described herein for 12 days. In some studies, the study was carried out with administered the compounds described herein including Example 1-2 racemate, Example 1-2A, Example 1-21B, Example 1-11 racemate, Example 1-11A, and/or Example 1-11B at a dosage of about 0.5, 1, 2, 4, and 8 mg.
Dosing volume (1 or 0.6 mL/kg) was calculated based on the body weight of the individual animal obtained on Day 1 (all groups), Days 2-3 (Groups 5-8), and Days 4-5 (Groups 9-13).
Ethanol (200PRF or 100% pure, non-denatured and no additives) was obtained from Fisher Scientific. The ethanol dosing solution was prepared fresh for each use. One (1) mL of ethanol was added to four (4) mL of saline (0.9% NaCl) in a glass vial and mixed by vortexing to create a uniform solution prior to administration. Animals were administered 20% ethanol at 1 g/kg (IP) 8 hours following the last dose of test article. Thirty (30) minutes following ethanol challenge, animals were euthanized with CO2. About 7 mL of whole blood was rapidly collected via vena cava for generation of serum samples for assays (Acetaldehyde assay by GPL and ALDH2 activity and protein assay by Eurofins). Blood samples were placed into serum separator tubes and maintained at room temperature for at least 30 minutes to allow clot formation prior to processing.
The left lateral lobe of liver was harvested and rinsed in cold saline to render a sample that was snap frozen in liquid nitrogen. Samples were stored at −80° C. until shipment. […]
The obtained serum samples as described herein were measured in singlicate for Acetaldehyde concentration using the Acetaldehyde Colorimetric Assay Kit (BioAssay Systems, #EACT-100), in accordance with manufacturer's instructions. […]

As usually defined, the melting point is the temperature, or range, at which the solid turns liquid. The compound `CCN(CC)C(=O)[S+]([O-])CC[S+]([O-])C(=O)N(CC)CC` (centres unmarked) [Example 1-15, 1-1′-(ethane-1,2-diyldisulfinyl)bis(N,N-diethylmethanamide)] showed a melting point of 71.2 to 74.5 °C. For the same compound, in series [1], the “ALDH2 inhibition activity in comparison with the negative control group” value is “did not show any inhibition activity”.

Values taken from US11649208B2, “Compounds and methods for treating alcohol disorder” (SOPHROSYNE PHARMACEUTICALS LIMITED, priority 2021, dated 2023).
